# Measured values reported in patent US5364867A, “4-phenylpiperdine agents for treating cns disorders” (Sterling Winthrop Inc., priority 1992, dated 1994).
# Structures can show the parent of a compound that is named as a salt.
# Target: sigma receptors
# Assay: sigma receptor binding, [3H]di(2-tolyl)-guanidine (DTG) assay, guinea pig brain membranes
# Conditions: [3H]DTG approximately 4 nM; male Hartley guinea pig brain membranes; 25° C. for 90 min; nonspecific binding 10 μM haloperidol
# Method: Brain tissue was prepared from male Hartley guinea pigs (Hazelton Labs, Denver, Pa.) which were anesthetized with CO2 and sacrificed by decapitation. All animal care and use procedures were in accord with the "Guide for the Care and Use of Laboratory Animals" (NIH Publ. No. 86-23, 1985). Homogenization was performed in 10 volumes (wt/vol) of 0.32M sucrose with a Brinkmann Polytron at setting 5, 30 sec. The homogenate was centrifuged at 900×g for 10 min at 4° C., and the supernatant was collected and centrifuged at 22,000×g for 20 min at 4° C. The pellet was resuspended in 10 volumes of Tris-HCl buffer (50 mM, pH 7.4), incubated at 37° C. for 30 min and centrifuged at 22,000×g for 20 min at 4° C. Following this, the pellet was resuspended in Tris buffer and frozen in 5-10 mL aliquots corresponding to a tissue concentration of 100 mg/mL at -70° C. Binding characteristics of the membranes were stable for at least one month when stored at -70° C.
# On the day of the assay, membrane aliquots were thawed, resuspended in fresh Tris buffer and stored on ice until use. Each assay tube contained 100 μL of [^3 H](+)pentazocine at a final concentration of approximately 0.5 nM, [^3 H]di(2-tolyl)-guanidine (DTG) at a final concentration of approximately 4 nM, 100 μL of various concentrations of the compounds of interest, 500 μL of the tissue suspension and 300 μL of buffer to a final assay volume of 1 mL and a final tissue concentration of approximately 8 mg/tube, corresponding to approximately 0.15 mg protein/tube. Nonspecific binding was defined by addition of a final concentration of 1 μM haloperidol to blank tubes for the [^3 H](+)pentazocine assay or by addition at a final concentration of 10 μM haloperidol to blank tubes for [^3 H] DTG assay. All tubes were incubated at 37° C. for 150 min ([^3 H](+)pentazocine) or at 25° C. for 90 min ([^3 H]DTG) before termination of the reaction by filtration over Whatman GF/B glass fiber filters that were presoaked in a solution of 0.5% polyethyleneimine for at lease 1 hr prior to use. Filters were washed with three 4 mL volumes of cold Tris-HCl buffer.
# Following addition of scintillation cocktail, samples were allowed to equilibrate for at least 4 hr. The amount of bound radioactivity was determined by liquid scintillation spectrometry using a Beckman LS 5000 TA liquid scintillation counter with an efficiency for tritium of approximately 60%. The results are reported as a percent (%) inhibit ion of binding at 10 μM.
# Data obtained on the compounds in the di(2-tolyl)guanidine (DTG) and d-pentazocine (+Pent) assays are expressed as a Ki value in nM. The number of determinations follow this value in parentheses.
row,SMILES,Ki [nM]
1,"O=C(CCc1ccccc1)N1CCC(O)(c2ccccc2)CC1 [Example 1, 4-Phenyl-4-hyroxy-1-(3-phenylpropionyl) piperidine]",34400
2,"O=C(O)C1(c2ccccc2)CCN(CCCc2ccccc2)CC1 [Example 2a, 4-phenyl-1-(3-phenylpropyl)-4-piperidinecarboxylic acid]",16.4
3,"O=C(N1CCCC1)C1(c2ccccc2)CCN(CCCc2ccccc2)CC1 [Example 2b, 4-Phenyl-1-(3-phenylpropyl)-4-(1-pyrrolidinylcarbonyl)piperidine]",116
4,"COc1cccc(C2CCN(CCCc3ccccc3)CC2)c1 [Example 3a, 4-(3-methoxyphenyl)-1-(3-phenylpropyl)piperidine hydrochloride]",2.21
5,"Oc1cccc(C2CCN(CCCc3ccccc3)CC2)c1 [Example 3b, 4-(3-hydroxyphenyl)-1-(3-phenylpropyl)piperidine hydrochloride]",0.65
6,"O=C(c1ccccc1)C1(c2ccccc2)CCN(CCCc2ccccc2)CC1 [Example 4, 4-benzoyl-4-phenyl-1-(3-phenylpropyl)piperidine]",22.1
7,"CCC(=O)C1(c2ccccc2)CCN(CCCc2ccccc2)CC1 [Example 5, 4-Phenyl-1-(3-phenylpropyl)-4-propionylpiperidine]",9.1
8,"CCC(=O)OC1(c2ccccc2)CCN(CCC(=NO)c2ccccc2)CC1 [Example 6, 4-Phenyl-1-(3-oximino-3-phenylpropyl)-4-propionoxypiperidine]",589
9,"CCOC(=O)C1(c2ccccc2)CCN(CCCc2ccccc2)CC1 [Example 7, Ethyl 4-Phenyl-1-(3-phenylpropyl)-4-piperidinecarboxylate]",88.9
